# Test results as given in patent US5470879A, “Treatment of non-insulin-dependent diabetes” (Laboratories Monal, priority 1992, dated 1995).
# Like-named read-outs stand apart in the source and are kept apart here.
# Columns and labels:
# [1] = test system: isolated islets of Langerhans of rat pancreas; test: Insulin secretion of isolated islets of Langerhans of rat pancreas (8.3 mM glucose, 1 hour); format: cell-based, Wistar rats
# Experimental: (§1) In these examples, the pancreatic hormones (insulin and glucagon) were evaluated by radioimmunoassays.
# This method, which has the advantage of necessitating only a small amount of substance, permits a direct study of the effects of the composition on pancreatic endocrine cells, especially insulin-secreting B cells, to the exclusion of any interference with the exocrine and related tissues.
# The effect of different concentrations of 4-hydroxyisoleucine on insulin secretion was investigated on isolated islets of Wistar rats, incubated in the presence of 8.3 mM glucose (1.5 g/l) for 1 hour. The results obtained are recorded in FIG. 1, in which the histograms represent the insulin secretion measured over 60 minutes for each dose of 4-hydroxyisoleucine.
# By way of comparison, the effects of two structural analogues of 4-hydroxyisoleucine, i.e. isoleucine and leucine, were observed under the same conditions, and it could be established that, with these two substances, the stimulatory effect on insulin secretion is apparent only with concentrations 50 to 100 times as high.
# [2] = test system: isolated and perfused rat pancreas; test: Isolated and perfused rat pancreas: insulin secretion, vascular flow, glucagon (8.3 mM glucose); details: for Insulin secretion: glucose alone 810 ± 83
# Experimental: as §1
# To carry out this test, the pancreas was completely isolated from all the other neighbouring organs and tissues (spleen, stomach, duodenum, epiploic fat) and perfused in an open circuit with a physiological solution in a perfusion chamber. This preparation has the advantage of preserving the functional and vascular integrity of the organ while depriving it of the regulatory influences (humoral or nervous) to which it is normally subjected.
# In this example, the experiments were carried out in the presence of an 8.3 mM concentration of glucose. Under these conditions, the effect on insulin secretion of a perfusion of 4-hydroxyisoleucine at a concentration of 200 μM for 10 minutes was studied. […] The perfusion of the 4-hydroxyisoleucine is indicated by the rectangular box with the lines extending downwardly from opposite sides of the box, near the top of the Figure.
# The amounts of insulin secreted during the 10 minutes of perfusion are shown below: […]
# [3] = format: in vivo, Wistar rats
# Experimental: as §1
# (§2) Blood sugar level was assayed using a Technicon autoanalyzer by the potassium ferricyanide method.
# The results were subjected to a variance analysis followed by the multiple comparison test.
# (§3) During this experiment, Wistar rats were anaesthetized and then provided with catheters in both jugular veins. One catheter enables blood samples needed for the assay of plasma glucose and plasma insulin to be taken, the other catheter is used for the intravenous injection of the test substance.
# [4] = Intravenous glucose tolerance test (IVGTT) in anaesthetized normal rats fed ad libitum; format: in vivo
# Experimental: as §2, §3
# Still in anaesthetized normal rats previously fed ad libitum, an intravenous glucose tolerance test was carried out.
# Dissolved glucose was administered intravenously at a dose of 0.3 g/kg in one of the two jugular veins of the rat. […] In FIG. 3, "o" indicates the values observed when administering glucose alone, while ".cndot." indicates the values observed during the administration of glucose plus 4-hydroxyisoleucine.
# [5] = Gastric intubation in fasted conscious normal dogs: blood insulin and sugar levels; format: in vivo; details: 9 mg/kg by gastric intubation
# Experimental: as §1, §2
# During a complementary experiment in dogs, we investigated whether 4-hydroxyisoleucine can be active after oral administration, and whether, in this case, this substance retains its insulin-secreting property and consequently its capacity to improve glucose tolerance.
# (§4) Using conscious normal dogs kept fasted for 18 hours, 4-hydroxyisoleucine is dissolved in physiological saline and administered by gastric intubation at a dose of 9 mg/kg.
# Blood samples drawn from one of the two jugular veins enabled the blood insulin and sugar levels of these animals to be evaluated. […] The arrows near the top of FIGS. 4A and 4B represent the approximate time of administration of the 4-hydroxyisoleucine.
# [6] = Orally induced hyperglycaemia (OGTT) in fasted conscious normal dogs; format: in vivo
# Experimental: as §2, §4
# Dissolved glucose was administered by gastric intubation at a dose of 1 g/kg.
# In FIG. 5, "o" represents values observed upon administering glucose alone; ".cndot." represents values observed in a trial in which glucose plus 4-hydroxyisoleucine is administered. The arrow toward the top of FIG. 5 represents the point of administration of the glucose or glucose plus 4-hydroxyisoleucine. When 4-hydroxyisoleucine (9 mg/kg) is added to the glucose solution administered by gastric intubation, the blood sugar level reaches only 120 mg/dl at the 30th minute, i.e. only +31%.
# [7] = Acute intraperitoneal toxicity in Swiss mice; format: in vivo
# Experimental: The acute toxicity was determined in Swiss mice of both sexes on intraperitoneal administration of a single dose of 1 gram per kilo of 4-hydroxyisoleucine. […] The LDo (zero lethal dose) is greater than 1 gram per kilo under our experimental conditions.
# [8] = 9 mg/kg I.V., -2 min (before injection)
# [9] = 9 mg/kg I.V., -10 min (before injection)
# [10] = 9 mg/kg I.V., -15 min (before injection)
compound,measurement,setting,value
C[C@@H]([C@H](C)O)[C@H](N)C(=O)O [4-hydroxyisoleucine],minimal effective concentration,"[1]; Rattus norvegicus, 1 h, read-out: concentration at which a stimulatory effect on insulin secretion is apparent",200 µM
same,dose dependence of stimulation of insulin secretion,"[1]; isolated rat islets, 8.3 mM glucose",increases slightly with the dose
same,mode of stimulation of insulin secretion,"[1]; summary of ""in vitro"" tests",direct effect on the B cell of the islet of Langerhans
same,Insulin secretion,[2]; 50 μM,1232 ± 93 ng/10 min
same,Insulin secretion,[2]; 200 μM,1520 ± 154 ng/10 min
same,effect on insulin secretion (time course),"[2]; 200 μM, perfusion for 10 minutes","stimulation is immediate and in two phases, and persists throughout the period of the perfusion"
same,Insulin secretion,[2]; 500 μM,2206 ± 213 ng/10 min
same,concentration dependence of stimulatory effect on insulin secretion,[2]; 50 to 500 μM,stimulatory effect increases with the 4-hydroxyisoleucine concentration
same,pancreatic vascular flow and level of pancreatic glucagon,[2]; during perfusion,no modification
same,effect on plasma insulin level,[3]; 9 mg/kg I.V.,immediate and particularly important increase
same,time after injection at which reduction in circulating glucose level becomes significant,[3]; 9 mg/kg I.V.,15 min
same,Blood sugar level,"[3]; 9 mg/kg I.V., 2 min",1.26 ± 0.08 g/L
same,Plasma insulin,"[3]; 9 mg/kg I.V., 2 min",4.4 ± 1.1 ng/mL
same,Blood sugar level,"[3]; 9 mg/kg I.V., 5 min",1.18 ± 0.04 g/L
same,Plasma insulin,"[3]; 9 mg/kg I.V., 5 min",9.1 ± 1.0 ng/mL
same,Blood sugar level,"[3]; 9 mg/kg I.V., 15 min",0.94 ± 0.09 g/L
same,Plasma insulin,"[3]; 9 mg/kg I.V., 15 min",18.5 ± 1.5 ng/mL
same,Blood sugar level,"[3]; 9 mg/kg I.V., 30 min",0.99 ± 0.10 g/L
same,Plasma insulin,"[3]; 9 mg/kg I.V., 30 min",18.6 ± 1.5 ng/mL
same,Blood sugar level,"[3]; 9 mg/kg I.V., 45 min",0.99 ± 0.12 g/L
same,Plasma insulin,"[3]; 9 mg/kg I.V., 45 min",14.5 ± 4.8 ng/mL
same,Blood sugar level,"[3]; 9 mg/kg I.V., 60 min",0.94 ± 0.10 g/L
same,Plasma insulin,"[3]; 9 mg/kg I.V., 60 min",14.4 ± 4.8 ng/mL
same,Blood sugar level,"[3]; 9 mg/kg I.V., 90 min",0.89 ± 0.12 g/L
same,Plasma insulin,"[3]; 9 mg/kg I.V., 90 min",14.9 ± 5.2 ng/mL
same,Blood sugar level,[3]; [8],1.34 ± 0.07 g/L
same,Plasma insulin,[3]; [8],3.4 ± 1.1 ng/mL
same,Blood sugar level,[3]; [9],1.38 ± 0.09 g/L
same,Plasma insulin,[3]; [9],2.4 ± 0.1 ng/mL
same,Blood sugar level,[3]; [10],1.32 ± 0.09 g/L
same,Plasma insulin,[3]; [10],2.8 ± 0.2 ng/mL
same,reduction in circulating glucose level relative to the starting value,"[3]; 9 mg/kg I.V., at the 90th minute",approximately 30%
same,"side effect secondary to the injection (polypnea, tachycardia, hypoxia)","[3]; I.V. injection, anaesthetized rats",no side effect
same,effect on induced hyperglycaemia,[4]; 9 mg/kg I.V. with glucose 0.3 g/kg I.V.,markedly reduced
same,Blood sugar level,"[4]; 9 mg/kg I.V. with glucose 0.3 g/kg I.V., 3rd minute, glucose alone 282 mg/dl",204 mg/dL
same,change in blood sugar level,"[4]; 9 mg/kg I.V. with glucose 0.3 g/kg I.V., 3rd minute, glucose alone +112%",+58%
same,glucose tolerance,"[4]; rat, intravenously, summary statement",improves glucose tolerance
same,duration of hyperinsulinaemia,[5]; fasted,5 min
same,effect on blood sugar level,[5]; fasted,gradual and discrete reduction in blood sugar level
same,rise in blood insulin level,[5]; from the 3rd minute,+277%
same,Blood sugar level,"[6]; 9 mg/kg intragastric with glucose 1 g/kg, 30th minute, glucose alone 166 mg/dl",120 mg/dL
same,change in blood sugar level,"[6]; 9 mg/kg intragastric with glucose 1 g/kg, 30th minute, glucose alone +85%",+31%
same,glucose tolerance,"[6]; dog, orally, summary statement",improves glucose tolerance
same,macroscopic deleterious effect on the main organs at autopsy,"[7]; 1 gram per kilo intraperitoneal, thymus, heart, lungs, liver, stomach, kidneys, adrenals, pancreas, duodenum, genital tract, bladder",does not appear to disclose any macroscopic deleterious effect
same,LDo (zero lethal dose),"[7]; intraperitoneal, single dose",greater than 1 gram per kilo
same,toxic phenomenon over 15 days,[7]; single dose 1 gram per kilo intraperitoneal,does not appear to detect any toxic phenomenon
